Measurements taken from patent publication US7241791B2, “Substituted 4-(indazol-3-yl)phenols” (Wyeth, priority 2002, dated 2007).

Tests used:
[1] = target: T1, human ERα (Homo sapiens, UniProt P03372); assay: IL-6 expression (ELISA, ER/IL-6) in Ad5-wt-hERα infected HAECT-1 cells; conditions: for ER/IL-6 % E2: efficacy relative to the maximal inhibition observed with E2
T1 sequence (P03372 1-595): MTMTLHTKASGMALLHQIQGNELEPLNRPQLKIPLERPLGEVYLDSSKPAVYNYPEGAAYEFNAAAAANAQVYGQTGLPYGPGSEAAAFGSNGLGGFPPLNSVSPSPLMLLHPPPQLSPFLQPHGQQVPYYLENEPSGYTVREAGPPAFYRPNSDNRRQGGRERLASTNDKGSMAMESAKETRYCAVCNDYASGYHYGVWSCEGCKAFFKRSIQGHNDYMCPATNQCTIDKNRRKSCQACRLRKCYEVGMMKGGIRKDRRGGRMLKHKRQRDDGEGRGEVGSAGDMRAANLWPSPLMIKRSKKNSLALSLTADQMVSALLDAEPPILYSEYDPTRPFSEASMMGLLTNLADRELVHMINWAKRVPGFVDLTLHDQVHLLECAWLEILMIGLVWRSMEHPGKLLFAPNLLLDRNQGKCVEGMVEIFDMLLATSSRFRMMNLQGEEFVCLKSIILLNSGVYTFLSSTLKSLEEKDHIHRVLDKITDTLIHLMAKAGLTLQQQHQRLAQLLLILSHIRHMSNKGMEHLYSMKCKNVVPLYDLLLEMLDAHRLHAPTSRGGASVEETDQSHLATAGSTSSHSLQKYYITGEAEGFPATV

[2] = target: T1, human ERα; assay: NF-κB luciferase reporter (ER/NF-KB-luc) in Ad5-wt-hERα infected HAECT-1 cells; conditions: for IC50: ER/NF-KB-luc IC50, Ad5-wt-ER infected HAECT-1 cells, IL-1β; for Emax: HAECT1, read-out: ER/NF-KB-luc % E2, efficacy relative to the maximal inhibition observed with E2
[3] = target: T1, human ERα; assay: Creatine kinase expression (ER/CK) in Ad5-wt-hERα infected HAECT-1 cells; conditions: for ER/CK % E2: efficacy relative to the maximal stimulation observed with E2

| IC50 [1] [nM] | ER/IL-6 % E2 [1] [% E2] | IC50 [2] [nM] | Emax [2] [%] | EC50 [3] [nM] | ER/CK % E2 [3] [% E2] | Compound |
| --- | --- | --- | --- | --- | --- | --- |
| 761 | 67 | 53 | 73 |  |  | Oc1ccc(-c2nn(-c3cccc(Br)c3)c3cc(O)ccc23)c(O)c1 [Example 14, 4-[1-(3-bromophenyl)-6-hydroxy-1H-indazol-3-yl]benzene-1,3-diol] |
|  |  | 303 | 100 | 1000 | 30 | CCCCn1nc(-c2ccc(O)cc2)c2ccc(C(F)(F)F)cc21 [Example 198, 4-[1-butyl-6-(trifluoromethyl)-1H-indazol-3-yl]phenol] |
|  |  | 431 | 135 | 2930 | 48 | Oc1ccc(-c2nn(Cc3ccccc3)c3ccccc23)c(O)c1 [Example 183, 4-(1-benzyl-1H-indazol-3-yl)benzene-1,3-diol] |
|  |  | 50 | 62 | 76 | 33 | Oc1ccc(-c2c3cccc(F)c3nn2C2CCCC2)cc1 [Example 61, 4-(2-cyclopentyl-7-fluoro-2H-indazol-3-yl)phenol] |
|  |  | 347 | 95 | 1370 | 86 | Cn1nc(-c2ccc(O)cc2)c2cc(F)ccc21 [Example 168, 4-(5-fluoro-1-methyl-1H-indazol-3-yl)phenol] |
|  |  | 37 | 92 | 51 | 34 | Oc1ccc(-c2nn(C3CCCCC3)c3c(F)cccc23)cc1 [Example 33, 4-(1-cyclohexyl-7-fluoro-1H-indazol-3-yl)phenol] |
|  |  | 42 | 107 | 79 | 49 | CCCn1nc(-c2ccc(O)cc2)c2cccc(C(F)(F)F)c21 [Example 48, 4-[1-propyl-7-(trifluoromethyl)-1H-indazol-3-yl]phenol] |
|  |  | 43 | 90 | 309 | 48 | CCCn1nc2c(Cl)cccc2c1-c1ccc(O)cc1 [Example 44, 4-[7-chloro-2-propyl-2H-indazol-3-yl]phenol] |
|  |  | 97 | 94 | 13 | 26 | CCCCCn1nc(-c2ccc(O)cc2)c2cccc(C(F)(F)F)c21 [Example 47, 4-[1-pentyl-7-(trifluoromethyl)-1H-indazol-3-yl]phenol] |
|  |  | 66 | 115 | 137 | 87 | Cc1cccc2c(-c3ccc(O)cc3)n[nH]c12 [Example 34, 4-(7-methyl-1H-indazol-3-yl) phenol] |
|  |  | 18 | 73 | 143 | 38 | Cc1cc(O)ccc1-c1nn(C2CCCC2)c2c(-c3ccc(O)c(O)c3)cccc12 [Example 259, 4-[1-cyclopentyl-3-(4-hydroxy-2-methylphenyl)-1H-indazol-7-yl]benzene-1,2-diol] |
|  |  | 5 | 90 | 133 | 36 | C=CCn1nc2c(C(F)(F)F)cccc2c1-c1ccc(O)cc1 [Example 59, 4-[2-allyl-7-(trifluoromethyl)-2H-indazol-3-yl]phenol] |
|  |  | 26 | 90 | 401 | 49 | CC(C)n1nc(-c2ccc(O)cc2)c2cccc(F)c21 [Example 55, 4-(7-fluoro-1-isopropyl-1H-indazol-3-yl)phenol] |
|  |  | 20 | 100 | 97 | 38 | C=CCn1nc(-c2ccc(O)cc2)c2cccc(C(F)(F)F)c21 [Example 58, 4-[1-allyl-7-(trifluoromethyl)-1H-indazol-3-yl]phenol] |
|  |  | 371 | 87 | 608 | 51 | OCCn1nc(-c2ccc(O)cc2O)c2cc(F)ccc21 [Example 192, 4-[5-fluoro-1-(2-hydroxyethyl)-1H-indazol-3-yl]benzene-1,3-diol] |
|  |  | 239 | 76 | 72 | 55 | Cc1cccc(-n2nc(-c3ccc(O)cc3O)c3ccc(O)cc32)c1 [Example 23, 4-[6-hydroxy-1-(3-methylphenyl)-1H-indazol-3-yl]benzene-1,3-diol] |
| 8130 | 110 | 164 | 94 |  |  | N#Cc1ccc(-n2nc(-c3ccc(O)cc3O)c3ccc(O)cc32)cc1 [Example 15, 4-[3-(2,4-dihydroxyphenyl)-6-hydroxy-1H-indazol-1-yl]benzonitrile] |

| IC50 [1] [nM] | ER/IL-6 % E2 [1] [% E2] | IC50 [2] [nM] | Emax [2] [%] | EC50 [3] [nM] | ER/CK % E2 [3] [% E2] | Compound |
| --- | --- | --- | --- | --- | --- | --- |
|  |  |  | 108 | 22 | 79 | Cc1cccc2c(-c3ccc(O)cc3)n(C(C)C)nc12 [Example 40, 4-[2-isopropyl-7-methyl-2H-indazol-3-yl]phenol] |
|  |  | 582 | 95 | 2380 | 42 | Cn1nc(-c2ccc(O)cc2)c2cc(C(F)(F)F)ccc21 [Example 171, 4-[1-methyl-5-(trifluoromethyl)-1H-indazol-3-yl]phenol] |
|  |  | 12 | 70 | 17 | 42 | Cc1cc(O)ccc1-c1nn(C(C)C)c2c(-c3ccsc3)cccc12 [Example 247, 4-(1-isopropyl-7-thien-3-yl-1H-indazol-3-yl)-3-methylphenol] |
|  |  | 80 | 82 | 787 | 24 | Cc1cc(O)ccc1-c1nn(C(C)C)c2c(F)cccc12 [Example 91, 4-(7-fluoro-1-isopropyl-1H-indazole-3-yl)-3-methylphenol] |
|  |  | 9 | 89 | 57 | 46 | Cc1cccc2c(-c3ccc(O)cc3)nn(C(C)C)c12 [Example 39, 4-(1-isopropyl-7-methyl-1H-indazol-3-yl)phenol] |
|  |  | 255 | 83 | 413 | 27 | CCCn1nc(-c2ccc(O)cc2C)c2cccc(Cl)c21 [Example 86, 4-(7-chloro-1-propyl-1H-indazole-3-yl)-3-methylphenol] |
|  |  | 16 | 74 | 223 | 35 | Cc1ccccc1-c1cccc2c(-c3ccc(O)cc3)nn(C(C)C)c12 [Example 235, 4-[1-isopropyl-7-(2-methylphenyl)-1H-indazol-3-yl]phenol] |
|  |  | 590 | 90 | 2200 | 32 | C=CCn1nc2c(Cl)cccc2c1-c1ccc(O)cc1C [Example 78, 4-(2-allyl-7-chloro-2H-indazol-3-yl)-3-methylphenol] |
|  |  | 31 | 86 | 121 | 43 | CC(C)n1nc(-c2ccc(O)cc2)c2cccc(Cl)c21 [Example 45, 4-(7-chloro-1-isopropyl-1H-indazol-3-yl)pheno] |
|  |  | 32 | 87 | 309 | 20 | CC(C)n1nc(-c2ccc(O)cc2)c2cccc(-c3ccsc3)c21 [Example 226, 4-(1-isopropyl-7-thien-3-yl-1H-indazol-3-yl)phenol] |
|  |  | 276 | 77 | 827 | 28 | Cn1nc(-c2ccc(O)cc2O)c2cccc(Cl)c21 [Example 170, 4-(7-chloro-1-methyl-1H-indazol-3-yl)benzene-1,3-diol] |
|  |  | 196 | 117 | 1070 | 48 | Oc1ccc(-c2n[nH]c3c(F)cccc23)cc1 [Example 203, 4-(7-fluoro-1H-indazol-3-yl)phenol] |
|  |  | 487 | 100 | 1260 | 42 | CCCCn1nc(-c2ccc(O)cc2)c2ccc(Cl)cc21 [Example 199, 4-(1-butyl-6-chloro-1H-indazol-3-yl)phenol] |
|  |  | 17 | 76 | 111 | 27 | Oc1ccc(-c2c3cccc(Cl)c3nn2C2CCCC2)cc1 [Example 52, 4-(7-chloro-2-cyclopentyl-2H-indazol-3-yl)phenol] |
|  |  | 158 | 54 | 974 | 32 | Oc1ccc(-c2nn(C3CCCC3)c3c(-c4ccc(O)c(O)c4)cccc23)cc1 [Example 240, 4-[1-cyclopentyl-3-(4-hydroxyphenyl)-1H-indazol-7-yl]benzene-1,2-diol] |
|  |  | 41 | 87 | 302 | 29 | Cc1cc(O)ccc1-c1nn(C(C)C)c2c(Cl)cccc12 [Example 77, 4-(7-chloro-1-isopropyl-1H-indazol-3-yl)-3-methylphenol] |
